Experimental data from patent publication US4970205A, “Sulfonic acid substituted aromatic steroids as inhibitors of steroid 5-α-reductase” (SmithKline Beecham Corporation, priority 1988, dated 1990).
pKi: −log10 of the molar value. Like-named read-outs stand apart in the source and are kept apart here.

Columns and labels:
steroid 5-α-reductase = conditions: cited from earlier work; for pKi / reversibility of inhibition (with Ki): Table I; for time-dependence of 5-α-reductase inhibition: footnote text of Table I
[1] = target: T1, human steroid 5-α-reductase (Homo sapiens, UniProt P31213); experiment: inhibition of human steroid 5-α-reductase using tissue from hyperplastic human prostates ([14C]-testosterone conversion, Dixon plot); assay type: biochemical; conditions: human prostatic particulate, pH 5.0, 37° C., 20 to 30 minutes; competitive against testosterone assumed
T1 construct: Frozen human prostates were thawed and minced into small pieces; from tissue; host or cells: hyperplastic human prostate, 140,000 x g particulate fraction
T1 sequence (P31213 1-254): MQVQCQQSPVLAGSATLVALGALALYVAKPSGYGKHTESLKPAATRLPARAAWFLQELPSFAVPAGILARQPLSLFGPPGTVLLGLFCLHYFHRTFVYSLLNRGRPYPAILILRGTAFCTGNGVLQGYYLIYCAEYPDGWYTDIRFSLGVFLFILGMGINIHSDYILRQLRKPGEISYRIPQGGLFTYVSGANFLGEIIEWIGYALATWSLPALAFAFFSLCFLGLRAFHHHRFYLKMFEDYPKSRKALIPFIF
Procedure: A compound of the invention, potassium 17b-(N,N-diisopropylcarboxamide)-estr-1,3,5(10)-triene-3-sulfonate, was tested for potency in inhibiting human steroid 5-α-reductase using tissue from hyperplastic human prostates. In determining potency in inhibiting the human enzyme, the following procedure was employed:
Frozen human prostates were thawed and minced into small pieces (5 mm^3). The tissue was homogenized in 3 to 5 volumes of 20 mM potassium phosphate buffer, pH 6.5, containing 0.33 M sucrose, 1 mM dithiothreitol, and […] with a Brinkmann Polytron (Sybron Corporation, Westbury, N.Y.). The solution was subjected to sonication for 3 to 5 minutes with a Sonifier (Branson Sonic Power Co.) followed by hand homogenization in a glass-to-glass Dounce homogenizer (Kontes Glass Company, Vineland, N.J.). […]
A constant amount of [^14 C]-testosterone (52 to 55 mCi/mmol, New England Nuclear, Boston, Mass.) in ethanol and varying amounts of the potential inhibitor in ethanol were deposited in test tubes and concentrated to dryness in a SAVANT Speed Vac. […] The radiochemical content in the bands of the substrate and the products was determined with a BIOSCAN Imaging Scanner (Bioscan, Inc., Washington, D.C.). The percent of recovered radiolabel converted to product was calculated, from which enzyme activity was determined. […]

Row | Structure (SMILES) | pKi (steroid 5-α-reductase) | reversibility of inhibition (with Ki) (steroid 5-α-reductase) | pKi (steroid 5-α-reductase; unit inferred) | time-dependence of 5-α-reductase inhibition (steroid 5-α-reductase) | pKi [1]
1 | CC12CCC(=O)C=C1CCC1C2CCC2(C)C(C(=O)O)CCC12 (stereo not shown) [(1)] | 5.96 | Reversible | – | – | –
2 | CC(=O)C1CCC2C3CC=C=CC(=O)CCC(=O)C3CCC12C (stereo not shown) [(2)] | 6.00 | Irreversible | – | – | –
3 | CC(CO)C1CCC2C3CCC4C(=[N+]=[N-])C(=O)CCC4(C)C3CCC12C (stereo not shown) [(3)] | – | Irreversible | 7.46 | potent, time-dependent | –
4 | CCN(CC)C(=O)C1CCC2C3CCC4N(C)C(=O)CCC4(C)C3CCC12C (stereo not shown) [(4)] | 8.30 | Reversible | – | – | –
5 | C=C1CC2C(CCC3(C)C2CCC3(OC(C)=O)C(C)=O)C2(C)CCC(=O)C=C12 (stereo not shown) [(5)] | 5.90 | Irreversible | – | time-dependent inactivator | –
6 | CC(C)N(C(=O)[C@H]1CC[C@H]2[C@@H]3CCc4cc(S(=O)(=O)O)ccc4[C@H]3CC[C@]12C)C(C)C [Potassium 17β-(N,N-Diisopropylcarboxamide)-estr-1,3,5(10)-triene-3-sulfonate] | – | – | – | – | 8.00
